US20220062240A1, “METHODS OF TREATING CANCER USING A CLK INHIBITOR” (BioSplice Therapeutics, Inc., priority 2018, published 2022)
Like-named read-outs stand apart in the source and are kept apart here.

Tests used:
CLK2 = target: T1, CLK2 (Homo sapiens, UniProt P49760); experiment: CLK2 kinase activity assay (Z-lyte, Ser/Thr 6 peptide); format: biochemical; details: recombinant CLK2 kinase, ATP 60 μM; read-out: EC50
T1 construct: purchased Thermo Fisher (Life Technologies), Z'-LYTE Kinase Assay Kits
Method: All reactions were performed in duplicate.

[1] = system: colorectal cancer (6 cell lines); experiment: CellTiter-Glo Viability Assay, colorectal cancer; format: cell-based; details: Homo sapiens, inhibition of cancer cell proliferation
Method: (§1) Fifty-one human cancer cell lines (breast cancer (8 cell lines), colorectal cancer (6 cell lines), haematopoietic & lymphoid tumors (13 cell lines), liver cancer (3 cell lines), lung cancer (4 cell lines), ovarian cancer (4 cell lines), pancreatic cancer (8 cell lines), and prostate cancer (5 cell lines)) were tested to determine the effects of representative compounds of Formulas (I)-(XII) on cellular proliferation, as evaluated using the CellTiter-Glo® Viability Assay.
(§2) For the Cell Viability Assays, cells were plated at 300-3,000 cells/well in 384-well plates in their respective media containing 1% Penicillin-Streptomycin and incubated for four days at 37° C. and 5% CO2. Twenty-eight replicates of DMSO-treated cells served as controls and cells treated with compound were performed in duplicate.
(§3) After incubation, 10 μL of CellTiter-Glo® (Promega) was added to each well allowed to incubate for approximately 12 minutes. This reagent results in cell lysis and generation of a luminescent signal proportional to the amount of ATP present. The amount of ATP is directly proportional to the number of metabolically active, viable cells present in culture. The CellTiter-Glo® Assay generates a luminescent signal, produced by the luciferase reaction (Promega.com).
(§4) After incubation, the luminescence signal was read using an EnVision™ Multilabel Plate Reader (Perkin Elmer). Dose-response curves were generated and EC50 concentration values were calculated using Dotmatics' Studies Software (Bishops Stortford, UK).

[2] = system: pancreatic cancer (8 cell lines); experiment: CellTiter-Glo Viability Assay, pancreatic cancer; format: cell-based; details: Homo sapiens, inhibition of cancer cell proliferation
Method: as §1, §2, §3, §4

[3] = system: ovarian cancer (4 cell lines); experiment: CellTiter-Glo Viability Assay, ovarian cancer; format: cell-based; details: Homo sapiens, inhibition of cancer cell proliferation
Method: as §1, §2, §3, §4

[4] = system: liver cancer (3 cell lines); experiment: CellTiter-Glo Viability Assay, liver cancer; format: cell-based; details: Homo sapiens, inhibition of cancer cell proliferation
Method: as §1, §2, §3, §4

T47D = experiment: CellTiter-Glo Viability Assay, breast cancer; format: cell-based; details: Homo sapiens, 96 h, breast cancer, four days, read-out: EC50
Method: as §1, §2, §3, §4

BT-549 = experiment: CellTiter-Glo Viability Assay, breast cancer; format: cell-based; details: Homo sapiens, 96 h; BT-549, breast cancer, four days; read-out: EC50
Method: as §1, §2, §3, §4

MCF7 = experiment: CellTiter-Glo Viability Assay, breast cancer; format: cell-based; details: Homo sapiens, 96 h; MCF7, breast cancer, four days; read-out: EC50
Method: as §1, §2, §3, §4

HCC1599 = experiment: CellTiter-Glo Viability Assay, breast cancer; format: cell-based; details: Homo sapiens, 96 h; HCC1599, breast cancer, four days; read-out: EC50
Method: as §1, §2, §3, §4

MDA-MB-231-Luc = experiment: CellTiter-Glo Viability Assay, breast cancer; format: cell-based; details: Homo sapiens, 96 h; MDA-MB-231-Luc, breast cancer, four days; read-out: EC50
Method: as §1, §2, §3, §4

CAMA1 = experiment: CellTiter-Glo Viability Assay, breast cancer; format: cell-based; details: Homo sapiens, CAMA-1, 96 h; CAMA1, breast cancer, four days; read-out: EC50
Method: as §1, §2, §3, §4

DU4475 = experiment: CellTiter-Glo Viability Assay, breast cancer; format: cell-based; details: Homo sapiens, DU-4475, 96 h; DU4475, breast cancer, four days; read-out: EC50
Method: as §1, §2, §3, §4

all 50 cell lines = experiment: CellTiter-Glo Viability Assay, average across all cell lines; format: cell-based; details: Homo sapiens; across all 50 cell lines; read-out: average EC50 for inhibition of cancer cell proliferation
Method: as §1, §2, §3, §4

[5] = system: lung cancer (4 cell lines); experiment: CellTiter-Glo Viability Assay, lung cancer; format: cell-based; details: Homo sapiens, inhibition of cancer cell proliferation
Method: as §1, §2, §3, §4

CLK3 = CLK3 (Homo sapiens, UniProt P49761); experiment: CLK3 kinase activity assay (Z-lyte, Ser/Thr 18 peptide)
[6] = system: prostate cancer (5 cell lines); experiment: CellTiter-Glo Viability Assay, prostate cancer; format: cell-based; details: Homo sapiens
Method: as §1, §2, §3, §4

[7] = system: haematopoietic & lymphoid tumors (13 cell lines); experiment: CellTiter-Glo Viability Assay, haematopoietic & lymphoid tumors; format: cell-based; details: Homo sapiens, inhibition of cancer cell proliferation
Method: as §1, §2, §3, §4

Sequence of CLK3 (P49761 whole entry): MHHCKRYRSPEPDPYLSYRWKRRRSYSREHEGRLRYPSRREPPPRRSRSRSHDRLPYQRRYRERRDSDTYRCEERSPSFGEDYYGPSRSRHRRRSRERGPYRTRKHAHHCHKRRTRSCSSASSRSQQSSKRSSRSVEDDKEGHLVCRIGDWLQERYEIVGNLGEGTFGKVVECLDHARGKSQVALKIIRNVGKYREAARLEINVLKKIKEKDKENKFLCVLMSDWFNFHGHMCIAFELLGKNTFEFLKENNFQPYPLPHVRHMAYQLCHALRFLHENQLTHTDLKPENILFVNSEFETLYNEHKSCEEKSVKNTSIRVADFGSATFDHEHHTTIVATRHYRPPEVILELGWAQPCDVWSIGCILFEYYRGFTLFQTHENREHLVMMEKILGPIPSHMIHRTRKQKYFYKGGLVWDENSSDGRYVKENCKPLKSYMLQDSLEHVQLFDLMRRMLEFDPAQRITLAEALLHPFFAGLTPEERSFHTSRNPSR
T1 sequence (P49760 whole entry): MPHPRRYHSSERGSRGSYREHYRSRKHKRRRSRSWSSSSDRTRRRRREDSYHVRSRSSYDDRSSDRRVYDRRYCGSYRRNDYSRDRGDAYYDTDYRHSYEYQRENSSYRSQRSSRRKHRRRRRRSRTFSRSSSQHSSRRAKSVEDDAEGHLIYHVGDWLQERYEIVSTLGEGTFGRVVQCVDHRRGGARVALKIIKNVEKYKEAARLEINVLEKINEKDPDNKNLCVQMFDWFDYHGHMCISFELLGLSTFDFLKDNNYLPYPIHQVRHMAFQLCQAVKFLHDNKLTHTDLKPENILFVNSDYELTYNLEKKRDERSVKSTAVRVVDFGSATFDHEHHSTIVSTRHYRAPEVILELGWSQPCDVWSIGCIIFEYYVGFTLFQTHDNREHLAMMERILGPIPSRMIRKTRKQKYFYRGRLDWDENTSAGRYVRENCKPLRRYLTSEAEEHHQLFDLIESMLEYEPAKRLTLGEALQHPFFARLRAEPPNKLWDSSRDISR

CN1CCN(c2cc(C(=O)Nc3cc4cc(-c5nnc(N(C)C)s5)ccc4cn3)ccn2)CC1 [Compound 84]
EC50 (CLK2): 0.0029 µM | EC50 ([1]; HCT-116, HCT116 cell line, read-out: Colorectal cancer, EC50 (μM) HCT116): 0.396 µM | EC50 ([1]; HT-29, HT29 cell line, read-out: Colorectal cancer, EC50 (μM) HT29): 1.13 µM | EC50 ([1]; SW-620, SW620 cell line, read-out: Colorectal cancer, EC50 (μM) SW620): 0.26 µM | EC50 ([1]; DLD-1 cell line, read-out: Colorectal cancer, EC50 (μM) DLD-1): 0.658 µM | EC50 ([1]; SW48 cell line, read-out: Colorectal cancer, EC50 (μM) SW48): 0.185 µM | EC50 ([1]; SW480 cell line, read-out: Colorectal cancer, EC50 (μM) SW480): 0.551 µM | EC50 ([2]; BXPC-3, BxPC3 cell line, read-out: Pancreatic cancer, EC50 BxPC3): 2.07 µM | EC50 ([2]; CAPAN-1, Capan1 cell line, read-out: Pancreatic cancer, EC50 Capan1): 1.12 µM | EC50 ([2]; Capan-2, Capan2 cell line, read-out: Pancreatic cancer, EC50 Capan2): 1.29 µM | EC50 ([2]; MIA PaCa-2 cell line, read-out: Pancreatic cancer, EC50 MIA PaCa-2): 0.461 µM | EC50 ([2]; PANC 05.04 cell line, read-out: Pancreatic cancer, EC50 PANC 05.04): 1.19 µM | EC50 ([2]; PANC-1 cell line, read-out: Pancreatic cancer, EC50 PANC-1): 1.83 µM | EC50 ([2]; UPAFII cell line, read-out: Pancreatic cancer, EC50 UPAFII): 0.593 µM | EC50 ([3]; PA-1, PA1 cell line, read-out: Ovarian cancer, EC50 (μM) PA1): 0.643 µM | EC50 ([3]; TOV112D, TOV-112D cell line, read-out: Ovarian cancer, EC50 (μM) TOV-112D): 0.61 µM | EC50 ([3]; OV-90 cell line, read-out: Ovarian cancer, EC50 (μM) OV-90): 1.64 µM | EC50 ([3]; OVCAR-3 cell line, read-out: Ovarian cancer, EC50 (μM) OVCAR-3): 0.446 µM | EC50 ([4]; SNU-398, SNU398 cell line, read-out: Liver cancer, EC50 SNU398): 0.234 µM | EC50 ([4]; HEPG2 cell line, read-out: Liver cancer, EC50 HEPG2): 0.734 µM | EC50 ([4]; PLC/PRF/5 cell line, read-out: Liver cancer, EC50 PLC/PRF/5): 1.93 µM | EC50 (T47D): 1.43 µM | EC50 (BT-549): 1.24 µM | EC50 (MCF7): 2.56 µM | EC50 (HCC1599): 1.13 µM | EC50 (MDA-MB-231-Luc): 1.1 µM | EC50 (CAMA1): 1.22 µM | EC50 (DU4475): 0.64 µM | EC50 (all 50 cell lines): 1.04 µM | EC50 ([5]; A-427, A427 cell line, read-out: Lung cancer, EC50 (μM) A427): 0.856 µM | EC50 ([5]; HCC78, HCC-78 cell line, read-out: Lung cancer, EC50 (μM) HCC-78): 1.47 µM | EC50 ([5]; NCI-H460 cell line, read-out: Lung cancer, EC50 (μM) NCI-H460): 1.26 µM | EC50 ([5]; NCI-H522 cell line, read-out: Lung cancer, EC50 (μM) NCI-H522): 0.553 µM | EC50 (CLK3): 0.0272 µM | EC50 ([6]; DU-145, read-out: Prostate cancer EC50 Du-145): 1.04 µM | EC50 ([6]; PC-3, PC3 cell line, inhibition of cancer cell proliferation, read-out: Prostate cancer EC50 PC3): 0.848 µM | EC50 ([6]; 22Rv1 cell line, inhibition of cancer cell proliferation, read-out: Prostate cancer EC50 22Rv1): 0.847 µM | EC50 ([6]; LNCap clone FGC cell line, inhibition of cancer cell proliferation, read-out: Prostate cancer EC50 LNCap clone FGC): 1.54 µM | EC50 ([6]; VCaP (Sigma) cell line, inhibition of cancer cell proliferation, read-out: Prostate cancer EC50 VCaP (Sigma)): 3.5 µM | EC50 ([7]; DND41, DND-41 cell line, read-out: Haematopoietic & Lymphoid tumors, EC50 (μM) DND-41): 0.914 µM | EC50 ([7]; MV4-11, MV-4-11 cell line, read-out: Haematopoietic & Lymphoid tumors, EC50 (μM) MV-4-11): 0.316 µM | EC50 ([7]; Rec1, REC-1 cell line, read-out: Haematopoietic & Lymphoid tumors, EC50 (μM) REC-1): 0.23 µM | EC50 ([7]; SU-DHL-4, SUDHL4 cell line, read-out: Haematopoietic & Lymphoid tumors, EC50 (μM) SUDHL4): 0.972 µM | EC50 ([7]; HL-60 cell line, read-out: Haematopoietic & Lymphoid tumors, EC50 (μM) HL-60): 2.59 µM | EC50 ([7]; JM1 cell line, read-out: Haematopoietic & Lymphoid tumors, EC50 (μM) JM1): 0.216 µM | EC50 ([7]; JURKAT, Clone E6-1 cell line, read-out: Haematopoietic & Lymphoid tumors, EC50 (μM) JURKAT, Clone E6-1): 1.62 µM | EC50 ([7]; JeKo-1 cell line, read-out: Haematopoietic & Lymphoid tumors, EC50 (μM) JeKo-1): 0.319 µM | EC50 ([7]; KASUMI-1 cell line, read-out: Haematopoietic & Lymphoid tumors, EC50 (μM) KASUMI-1): 0.842 µM | EC50 ([7]; Loucy cell line, read-out: Haematopoietic & Lymphoid tumors, EC50 (μM) Loucy): 0.78 µM | EC50 ([7]; MOLT-4 cell line, read-out: Haematopoietic & Lymphoid tumors, EC50 (μM) MOLT-4): 0.965 µM | EC50 ([7]; TF-1 cell line, read-out: Haematopoietic & Lymphoid tumors, EC50 (μM) TF-1): 1.31 µM | EC50 ([7]; TOLEDO cell line, read-out: Haematopoietic & Lymphoid tumors, EC50 (μM) TOLEDO): 0.3 µM
